Measurements as given in patent publication US20230399327A1, “HIGH ACTIVITY HPK1 KINASE INHIBITOR” (ADLAI NORTYE BIOPHARMA CO., LTD., priority 2020, published 2023).
pIC50: −log10 of the molar value.

Molecular target: HPK1 kinase (Homo sapiens (Human), UniProt Q92918)
Assay: HPK1 kinase activity inhibition (ADP-Glo Kinase Assay)
Format: biochemical
Conditions: HPK1, MBP substrate, ATP, 25° C. 60 min
Description: Test Example 1: Detection of Compound's Ability to Inhibit HPK1 Kinase Activity (Method 1)
The specific operation is as follows: configure the enzymatic reaction system buffer (10 mM MOPS, pH 7.2, 5 mM β-glycerol-phosphate, 10 mM MgCl2, 0.8 mM EDTA, 2 mM EGTA, 0.1 mM DTT); the test compound (1 mM the compound stock solution in DMSO) was diluted with buffer to the highest concentration of 60 uM (containing 6% DMSO), and the compound with a concentration of 60 μM was initially diluted 5 times with a buffer containing 6% DMSO for a total of 8 points of gradient concentration; then dilute HPK1 kinase to 30 nM in buffer. Add 2 μl of HPK1 kinase diluent to each well of a Greiner 384-well microplate (Cat. No. 784075), and add 2 μl of buffer to the control well; add 1 μl of the diluted compound to the reaction well after brief centrifugation, and add 1 μl buffer solution containing 6% DMSO to the control well; after short centrifugation, place in a 25° C. constant temperature incubator (Shanghai Yiheng Scientific Instrument Co., Ltd., Cat. No.: LRH-150) and incubate for 20 minutes. Add 3 μl of reaction substrate (10 μM MBP and 20 μM ATP dissolved in distilled water) to each well, briefly centrifuge and incubate in a constant temperature incubator at 25° C. for 60 min, and use ADP-Glo Kinase Assay Kit to detect the enzymatic reaction activity, ADP-Glo Kinase Assay Kit detection is carried out according to the operating instructions of the kit. Data are described using the half maximal inhibitory concentration IC50 of the compound.

HPK1 kinase, sequence (Q92918 whole entry): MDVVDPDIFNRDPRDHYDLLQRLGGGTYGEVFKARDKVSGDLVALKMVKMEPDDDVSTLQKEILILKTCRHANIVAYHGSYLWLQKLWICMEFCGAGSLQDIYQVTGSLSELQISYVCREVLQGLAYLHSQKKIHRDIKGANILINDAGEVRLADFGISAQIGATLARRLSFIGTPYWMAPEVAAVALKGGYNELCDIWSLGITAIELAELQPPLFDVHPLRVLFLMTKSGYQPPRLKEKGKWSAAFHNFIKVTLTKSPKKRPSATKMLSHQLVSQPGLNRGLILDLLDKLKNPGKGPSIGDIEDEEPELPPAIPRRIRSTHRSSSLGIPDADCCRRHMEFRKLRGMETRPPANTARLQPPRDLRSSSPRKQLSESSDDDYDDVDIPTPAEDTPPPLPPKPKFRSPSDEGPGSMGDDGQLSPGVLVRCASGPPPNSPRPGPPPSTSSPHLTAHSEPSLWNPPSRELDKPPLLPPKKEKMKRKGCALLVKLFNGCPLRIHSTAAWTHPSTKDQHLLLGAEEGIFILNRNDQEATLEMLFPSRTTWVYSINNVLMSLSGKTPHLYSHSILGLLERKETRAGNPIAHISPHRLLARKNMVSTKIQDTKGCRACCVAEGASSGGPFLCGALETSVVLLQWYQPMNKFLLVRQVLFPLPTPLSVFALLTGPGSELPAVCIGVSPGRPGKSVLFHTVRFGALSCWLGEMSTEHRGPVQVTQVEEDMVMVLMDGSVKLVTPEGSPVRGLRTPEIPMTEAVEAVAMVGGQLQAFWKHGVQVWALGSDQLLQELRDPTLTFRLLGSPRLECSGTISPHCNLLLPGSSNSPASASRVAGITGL

pIC50 | SMILES
> 10.00 | COc1nc2c(cc1Nc1ncc3cccc(-c4cccc(Cl)n4)c3n1)CN(C)CC2 [Example 40, 8-(6-chloropyridin-2-yl)-N-(2-methoxy-6-methyl-5,6,7,8-tetrahydro-1,6-naphthyridin-3-yl)quinazolin-2-amine]
> 10.00 | COc1nc2c(cc1Nc1ncc3ccnc(NCC(C)(C)C)c3n1)CN(C)CC2 [Example 41, N2-(2-methoxy-6-methyl-5,6,7,8-tetrahydro-1,6-naphthyridin-3-yl)-N8-neopentylpyrido[3,4-d]pyrimidine-2,8-diamine]
> 10.00 | COc1nc2c(cc1Nc1ncc3ccnc(N[C@@H](C)C(C)(C)C)c3n1)CN(C)CC2 [Example 42, (S)—N8-(3,3-dimethylbut-2-yl)-N2-(2-methoxy-6-methyl-5,6,7,8-tetrahydro-1,6-naphthyridin-3-yl)pyrido[3,4-d]pyrimidine-2,8-diamine]
8.33 | COc1nc2c(cc1Nc1ncc3ccnc(-c4cc(C)nn4C)c3n1)CN(C)CC2 [Example 43, 8-(1,3-Dimethyl-1H-pyrazol-5-yl)-N-(2-methoxy-6-methyl-5,6,7,8-tetrahydro-1,6-naphthyridin-3-yl)pyrido[3,4-d]pyrimidin-2-amine]
> 10.00 | CCOc1nc2c(cc1Nc1ncc3cccc(-c4ccccc4OC)c3n1)CN(C)CC2 [Example 44, N-(2-ethoxy-6-methyl-5,6,7,8-tetrahydro-1,6-naphthyridin-3-yl)-8-(2-methoxyphenyl)quinazolin-2-amine]
> 10.00 | COc1ccccc1-c1cccc2cnc(Nc3cnc4c(c3)CN(C)CC4)nc12 [Example 45, 8-(2-methoxyphenyl)-N-(6-methyl-5,6,7,8-tetrahydro-1,6-naphthyridin-3-yl)quinazolin-2-amine]
9.82 | COc1ccccc1-c1cccc2cnc(Nc3cc4c(nc3C)CCN(C)C4)nc12 [Example 46, N-(2,6-dimethyl-5,6,7,8-tetrahydro-1,6-naphthyridin-3-yl)-8-(2-methoxyphenyl)quinazoline-2-amine]
8.56 | CCOc1nc2c(cc1Nc1ncc3cccc(-c4cccnc4OC)c3n1)CN(C)CC2 [Example 47, N-(2-ethoxy-6-methyl-5,6,7,8-tetrahydro-1,6-naphthyridin-3-yl)-8-(2-methoxypyridin-3-yl) quinazolin-2-amine]
8.71 | COc1ncccc1-c1cccc2cnc(Nc3cc4c(nc3C)CCN(C)C4)nc12 [Example 48, N-(2,6-dimethyl-5,6,7,8-tetrahydro-1,6-naphthyridin-3-yl)-8-(2-methoxypyridin-3-yl)quinazolin-2-amine]
7.57 | CN1CCc2[nH]c(=O)c(Nc3ncc4ccnc(N5CCOCC5)c4n3)cc2C1 [Example 49, 6-methyl-3-((8-morpholinopyrido[3,4-d]pyrimidin-2-yl)amino)-5,6,7,8-tetrahydro-1,6-naphthyridine-2(1H)-one]
> 10.00 | CCOc1nc2c(cc1Nc1ncc3ccnc(NCC(C)(C)C)c3n1)CN(C)CC2 [Example 52, N2-(2-ethoxy-6-methyl-5,6,7,8-tetrahydro-1,6-naphthyridin-3-yl)-N8-neopentylpyrido[3,4-d]pyrimidine-2,8-diamine]
> 10.00 | COc1nc2c(cc1Nc1ncc3cccc(-c4cnn(C)c4C)c3n1)CN(C)CC2 [Example 53, 8-(1,5-dimethyl-1H-pyrazol-4-yl)-N-(2-methoxy-6-methyl-5,6,7,8-tetrahydro-1,6-Naphthyridin-3-yl)quinazolin-2-amine]
7.66 | CCOc1nc2c(cc1Nc1ncc3cccc(-c4ccc(=O)n(C)c4)c3n1)CN(C)CC2 [Example 54, 5-(2-((2-ethoxy-6-methyl-5,6,7,8-tetrahydro-1,6-naphthyridin-3-yl)amino)quinazolin-8-yl)-1-methylpyridin-2(1H)-one]
9.18 | CCOc1nc2c(cc1Nc1ncc3cccc(-c4cnn(C)c4C)c3n1)CN(C)CC2 [Example 55, 8-(1,5-dimethyl-1H-pyrazol-4-yl)-N-(2-ethoxy-6-methyl-5,6,7,8-tetrahydro-1,6-naphthyridin-3-yl)quinazolin-2-amine]
9.60 | CCOc1nc2c(cc1Nc1ncc3ccnc(N[C@@H](CO)C(C)(C)C)c3n1)CN(C)CC2 [Example 57, (R)-2-((2-((2-ethoxy-6-methyl-5,6,7,8-tetrahydro-1,6-naphthyridin-3-yl)amino)pyrido[3,4-d]pyrimidin-8-yl)amino)-3,3-dimethylbutan-1-ol]
> 10.00 | CCOc1nc2c(cc1Nc1ncc3ccnc(N[C@H](C)C(C)(C)C)c3n1)CN(C)CC2 [Example 58, (R)—N8-(3,3-dimethylbut-2-yl)-N2-(2-ethoxy-6-methyl-5,6,7,8-tetrahydro-1,6-Naphthyridin-3-yl)pyrido[3,4-d]pyrimidine-2,8-diamine]

pIC50 | SMILES
> 10.00 | COc1nc2c(cc1Nc1ncc3cccc(Cc4ccccc4)c3n1)CN(C)CC2 [Example 59, 8-benzyl-N-(2-methoxy-6-methyl-5,6,7,8-tetrahydro-1,6-naphthyridin-3-yl)quinazolin-2-amine]
> 10.00 | Cc1c(-c2cccc3cnc(Nc4cc5c([nH]c4=O)CCN(C)C5)nc23)cnn1C [Example 61, 3-((8-(1,5-dimethyl-1H-pyrazol-4-yl)quinazolin-2-yl)amino)-6-methyl-5,6,7,8-tetrahydro-1,6-naphthyridin-2(1H)-one]
7.64 | COc1ccccc1-c1nccc2cnc(Nc3cc4c([nH]c3=O)CCN(C)C4)nc12 [Example 62, 3-((8-(2-methoxyphenyl)pyrido[3,4-d]pyrimidin-2-yl)amino)-6-methyl-5,6,7,8-tetrahydro-1,6-naphthyridin-2(1H)-one]
7.50 | CN1CCc2[nH]c(=O)c(Nc3ncc4ccnc(N5CCCCC5)c4n3)cc2C1 [Example 63, 6-methyl-3-((8-(piperidin-1-yl)pyrido[3,4-d]pyrimidin-2-yl)amino)-5,6,7,8-tetrahydro-1,6-naphthyridin-2(1H)-one]
> 10.00 | CN1CCc2[nH]c(=O)c(Nc3ncc4ccnc(NCC(C)(C)C)c4n3)cc2C1 [Example 64, 6-methyl-3-((8-(neopentylamino)pyrido[3,4-d]pyrimidin-2-yl)amino)-5,6,7,8-tetrahydro-1,6-naphthyridin-2(1H)-one]
7.70 | CCOc1nc2c(cc1Nc1ncc3ccnc(N4CC(C)(C)C4)c3n1)CN(C)CC2 [Example 65, 8-(3,3-dimethylazetidin-1-yl)-N-(2-ethoxy-6-methyl-5,6,7,8-tetrahydro-1,6-Naphthyridin-3-yl)pyrido[3,4-d]pyrimidin-2-amine]
7.63 | CCOc1nc2c(cc1Nc1ncc3cccc(-c4c(C)nn(C)c4C)c3n1)CN(C)CC2 [Example 67, N-(2-ethoxy-6-methyl-5,6,7,8-tetrahydro-1,6-naphthyridin-3-yl)-8-(1,3,5-trimethyl-1H-pyrazol-4-yl)quinazolin-2-amine]
8.83 | CN1CCc2c(cc(Nc3ncc4ccnc(N5CCCCC5)c4n3)c(=O)n2C)C1 [Example 68, 1,6-dimethyl-3-((8-(piperidin-1-yl)pyrido[3,4-d]pyrimidin-2-yl)amino)-5,6,7,8-tetrahydro-1,6-naphthyridin-2(1H)-one]
8.66 | CN1CCc2c(cc(Nc3ncc4ccnc(N5CCOCC5)c4n3)c(=O)n2C)C1 [Example 69, 1,6-dimethyl-3-((8-morpholinopyrido[3,4-d]pyrimidin-2-yl)amino)-5,6,7,8-tetrahydro-1,6-naphthyridin-2(1H)-one]
7.80 | CN1CCc2[nH]c(=O)c(Nc3ncc4ccnc(N5CCC(F)(F)CC5)c4n3)cc2C1 [Example 74, 3-((8-(4,4-difluoropiperidin-1-yl)pyrido[3,4-d]pyrimidin-2-yl)amino)-6-methyl-5,6,7,8-tetrahydro-1,6-naphthyridin-2(1H)-one]
> 10.00 | CN1CCc2[nH]c(=O)c(Nc3ncc4ccnc(C5=CCCCC5)c4n3)cc2C1 [Example 75, 3-((8-(cyclohex-1-en-1-yl)pyrido[3,4-d]pyrimidin-2-yl)amino)-6-methyl-5,6,7,8-tetra hydro-1,6-naphthyridin-2(1H)-one]
9.21 | CN1CCc2c(cc(Nc3ncc4ccnc(N5CCCCCC5)c4n3)c(=O)n2C)C1 [Example 80, 3-((8-(azepan-1-yl)pyrido[3,4-d]pyrimidin-2-yl)amino)-1,6-dimethyl-5,6,7,8-tetrahydro-1,6-naphthyridin-2(1H)-one]
9.64 | CN1CCc2c(cc(Nc3ncc4ccnc(C5=CCCCC5)c4n3)c(=O)n2C)C1 [Example 81, 3-((8-(cyclohex-1-en-1-yl)pyrido[3,4-d]pyrimidin-2-yl)amino)-1,6-dimethyl-5,6,7,8-tetrahydro-1,6-naphthyridin-2(1H)-one]
> 10.00 | Cn1c2c(cc(Nc3ncc4ccnc(N5CCC(F)(F)CC5)c4n3)c1=O)CN(CCO)CC2 [Example 82, 3-((8-(4,4-difluoropiperidin-1-yl)pyrido[3,4-d]pyrimidin-2-yl)amino)-6-(2-hydroxyethyl)-1-methyl-5,6,7,8-tetrahydro-1,6-naphthyridin-2(1H)-one]
9.80 | Cn1c2c(cc(Nc3ncc4ccnc(N5CCCCC5)c4n3)c1=O)CN(CCO)CC2 [Example 83, 6-(2-hydroxyethyl)-1-methyl-3-((8-(piperidin-1-yl)pyrido[3,4-d]pyrimidin-2-yl)amino)-5,6,7,8-tetrahydro-1,6-naphthyridin-2(1H)-one]
